Results on 16 compounds are retold here after ChEMBL document CHEMBL3351254, “Rational design, synthesis and anti-proliferative evaluation of novel 1,4-benzoxazine-[1,2,3]triazole hybrids” (2015).

Format in all cases: functional
A short description of experiment [1]: Antiproliferative activity against human MiaPaCa cells assessed as reduction in net protein increase after 48 hrs by SRB assay. The conditions noted are these: MIA PaCa-2, 48 h.
A short description of experiment [2]: Antiproliferative activity against human IMR32 cells assessed as reduction in net protein increase after 48 hrs by SRB assay. The conditions noted are these: IMR-32, 48 h. (In general: In SRB staining, fixed cells bind dye roughly in proportion to their protein.)
The next experiment has as its system HeLa. The experiment is described as follows: Antiproliferative activity against human HeLa cells assessed as reduction in net protein increase after 48 hrs by SRB assay.
In another experiment the test system is MDA-MB-231. The experiment is described as follows: Antiproliferative activity against human MDA-MB-231 cells assessed as reduction in net protein increase after 48 hrs by SRB assay. The conditions noted are these: MDA-MB-231, 48 h.

By GI50 is commonly meant the concentration that inhibits growth by half. Regarding `O=C1COc2ccccc2N1CCCn1cc(-c2ccccc2)nn1`, the GI50 in experiment [1] is 94 µM; in experiment [2], 0.37 µM; in the experiment on HeLa it was 9 µM; in the experiment with MDA-MB-231, 4.9 µM.

`Cc1ccc(-c2cn(CCCN3C(=O)COc4ccccc43)nn2)cc1`: the GI50 in experiment [1] is greater than 100 µM; in experiment [2], 4.4 µM; in the experiment with HeLa it was 14.3 µM; in the experiment on MDA-MB-231, 1.12 µM.

As for `CCCCCc1ccc(-c2cn(CCCN3C(=O)COc4ccccc43)nn2)cc1`, the GI50 was greater than 100 µM in experiment [1], 43.5 µM in experiment [2], greater than 100 µM in the experiment on HeLa and 5 µM in the experiment with MDA-MB-231.

`COc1ccc2cc(-c3cn(CCCN4C(=O)COc5ccccc54)nn3)ccc2c1`: the GI50 is greater than 100 µM in experiment [1], 1.3 µM in experiment [2], greater than 100 µM in the experiment with HeLa and 5 µM in the experiment with MDA-MB-231.

Regarding `O=C1COc2ccccc2N1CCCn1cc(-c2cc3ccccc3c3ccccc23)nn1`, the GI50 in experiment [1] is 8.4 µM; in experiment [2] it was 0.13 µM; in the experiment on HeLa it was greater than 100 µM; in the experiment on MDA-MB-231 it was greater than 100 µM.

Regarding `COc1ccc(-c2cn(CCCN3C(=O)COc4ccccc43)nn2)cc1`, the GI50 in experiment [1] came to 15.7 µM; in experiment [2], 49.9 µM; with HeLa, 4.9 µM; in the experiment with MDA-MB-231, 41.5 µM.

As for `CCCCCCc1cn(CCCN2C(=O)COc3ccccc32)nn1`, the 50% growth inhibitory concentration (GI50) is 0.15 µM in experiment [1], 0.71 µM in experiment [2], 0.1 µM with HeLa and 1.1 µM in the experiment on MDA-MB-231.

In the case of `O=C1COc2ccccc2N1CCCn1cc(-c2ccccn2)nn1`, the GI50 in experiment [1] is 5.8 µM; in experiment [2] it was 2 µM; in the experiment on HeLa it was 10 µM; in the experiment with MDA-MB-231, 4.8 µM.

For `O=C1COc2ccccc2N1CCCn1cc(-c2cccnc2)nn1`, the GI50 in experiment [1] is 8.2 µM; in experiment [2] it was 0.86 µM; with HeLa, greater than 100 µM; in the experiment on MDA-MB-231, 3 µM.

For the compound `O=C1COc2ccccc2N1CCCn1cc(CO)nn1`, the concentration for 50% growth inhibition (GI50) in experiment [1] is 1.01 µM; in experiment [2], 5.5 µM; in the experiment on HeLa, 7.3 µM; with MDA-MB-231, 5.7 µM.

Take `CCCCc1cn(CCCN2C(=O)COc3ccccc32)nn1`: the GI50 turned out to be 2.5 µM in experiment [1], 5.7 µM in experiment [2], 1.02 µM in the experiment with HeLa and 3.6 µM with MDA-MB-231.

On to `CCCc1cn(CCCN2C(=O)COc3ccccc32)nn1`, for which the GI50 was 2.6 µM in experiment [1], 1.4 µM in experiment [2], 23.2 µM with HeLa and 1.1 µM in the experiment on MDA-MB-231.

Take `O=C1COc2ccccc2N1CCCn1cc(CCCCl)nn1`: the GI50 turned out to be 12.5 µM in experiment [1], 0.2 µM in experiment [2], 0.1 µM in the experiment with HeLa and 6.4 µM in the experiment with MDA-MB-231.

For `O=C1COc2ccccc2N1CCCn1cc(C2(O)CCCCC2)nn1`, the GI50 came out at 2.5 µM in experiment [1], 1.2 µM in experiment [2], 2 µM in the experiment on HeLa and 1.2 µM in the experiment with MDA-MB-231.

On to `COc1cccc2c1C(=O)c1c(O)c3c(c(O)c1C2=O)C[C@@](O)(C(=O)CO)C[C@@H]3O[C@H]1C[C@H](N)[C@H](O)[C@H](C)O1` [DOXORUBICIN], for which the GI50 is 0.097 µM in experiment [1], 0.023 µM in experiment [2], 0.073 µM in the experiment with HeLa and 0.085 µM in the experiment with MDA-MB-231.

As for `CC(=O)O[C@H]1C(=O)[C@@]2(C)[C@H]([C@H](OC(=O)c3ccccc3)[C@]3(O)C[C@H](OC(=O)[C@H](O)[C@@H](NC(=O)c4ccccc4)c4ccccc4)C(C)=C1C3(C)C)[C@]1(OC(C)=O)CO[C@@H]1C[C@@H]2O` [PACLITAXEL], the GI50 was determined as 0.056 µM in experiment [1], 0.075 µM in experiment [2], 0.025 µM in the experiment on HeLa and 0.091 µM in the experiment with MDA-MB-231.
